Results as given in patent US20080214521A1, “Sensitization of Drug-Resistant Lung Caners to Protein Kinase Inhibitors” (priority 2005, published 2008).

Assays:
[1] = system: NSCLC cells expressing BAK under the control of a tetracycline-regulated promoter; assay: Apoptosis facilitated by conditionally expressed transgenic BAK; assay type: cell-based; conditions: BAK induced by DOX; data not shown
[2] = phase I study, cited from earlier work
[3] = system: NSCLC cell lines expressing BAK under the control of a tetracycline-regulated promoter; assay: Apoptosis induced by PKC inhibitors with conditional BAK expression (DOX), sub-G1 / TMRE / caspase cleavage immunoblot; assay type: cell-based; conditions: drug-resistant NSCLC cells (A549, NCI-H1299), 48 hours
Experimental: NSCLC cell lines known in the art were obtained. Unless otherwise specified, NSCLC cells were grown on tissue culture dishes (BD Falcon) in Dulbecco's Modified Eagle Medium supplemented with 10% fetal bovine serum, glucose, L-glutamine and penicillin/streptomycin in a humidified atmosphere at 5% CO2. NSCLC cells conditionally expressing transgenic BAK were obtained using the BD RevTet-On vector system (BD Clontech). A BamHI fragment encoding the full length human BAK cDNA was generated by PCR, confirmed by sequencing, and cloned into the pRevTRE vector. A retroviral BCL-XL expression vector has been described previously (26). Replication-defective retroviral virions were produced by standard calcium phosphate transfection in the FNX ampho packaging cell line (a gift from Dr G. P. Nolan, Stanford). Transductions were performed using filtered supernatants, and populations were selected with hygromycin B and puromycin in the absence of tetracycline, or were obtained by fluorescence activated cell sorting (Coulter) of EGFP-positive cells. […]
Cells with subdiploid DNA content (sub-G1) were quantified by flow cytometry after 48 hours. […] Cells that maintained Δψm (TMRE+) were quantified by TMRE-staining and flow cytometry after 48 hours. […] Whole cell extracts were obtained at 24 hours, and the cleavage of caspase-9, caspase-3 and the caspase substrate PARP was detected by immunoblotting.

lung cancer xenograft = conditions: mouse, in vivo; cited from earlier work
cancer cell lines = conditions: cited from earlier work
NCI-H1299 cells = assay: Drug synergy analysis, PKC412 with etoposide (VP16), sub-G1 flow cytometry
NCI-H1299 = assay: Cell cycle distribution by flow cytometry; assay type: cell-based; conditions: 50 μM PKC412, 24 hours
A549 cells = assay: Drug synergy analysis, PKC412 with etoposide (VP16), sub-G1 flow cytometry; assay type: cell-based
Experimental: (§1) All other drugs were purchased from Sigma.
(§2) After 48 hours, the fraction of cells with subdiploid DNA content (sub-G1) was quantified by flow cytometry. DMSO-treated cells (white bars) served as negative controls.

NCI-H460 cells = assay: as above; assay type: cell-based; conditions: simultaneous 25 μM etoposide and escalating PKC412 (0-100 μM), 48 hours
Experimental: as §1, §2

[4] = system: phosphorylation of protein kinase B/AKT and glycogen synthase kinase 3-beta; assay: Immunoblotting of downstream targets of PKC signal transduction after PMA stimulation; assay type: cell-based; conditions: drug-resistant and drug-sensitive cell lines; PKC412 1 to 10 μM for 2 hours, then PMA 1 μM 10 minutes
Experimental: Immunoblotting and cell fractionation was performed as described previously (38, 39) using primary antibodies against caspase-9 (Chemicon), caspase-3, BCL-XL, cytochrome c (BD Pharmingen), BAX, BAK, PARP (Upstate), AKT, phospho-AKT, GSK-3beta, phospho-GSK3beta (Cell Signaling), and actin (ICN).

[5] = simultaneous 25 μM etoposide and escalating PKC412 (0-100 μM), 48 hours

With zVAD-fmk the “effect on apoptosis facilitated by transgenic BAK” value [1] was “inhibited”.
For CO[C@@H]1[C@H](N(C)C(=O)c2ccccc2)C[C@H]2O[C@]1(C)n1c3ccccc3c3c4c(c5c6ccccc6n2c5c31)C(=O)NC4 [PKC412, N-[(9S,10R,11R,13R)-2,3,10,11,12,13-hexahydro-10-methoxy-9-methyl-1-oxo-9,13-epoxy-1H,9H-diindolo[1,2,3-gh:3′,2′,1′-Im]pyrrolo[3,4j][1,7]benzodiazonin-11-yl]-N-methylbenzamide], the “safety of combination with CDDP/gemcitabine” value ([2]; patients with advanced NSCLC, with standard cytotoxic regimen of CDDP/gemcitabine) is given as “established”, the “safety and feasibility of oral administration” value ([2]; patients with advanced cancers, oral) is given as “safe and feasible” and the “sensitisation to PKC412-mediated apoptosis by inducible expression of BAK” value [3] is given as “Sensitized”. The “effects in murine xenograft model of lung cancer” value (lung cancer xenograft) was “antitumoral and antiangiogenic effects”, the “effect on cancer cell lines” value (cancer cell lines) was “induced cell cycle arrest or apoptosis” and the “apoptosis induced by VP16 given subsequently to PKC412” value (NCI-H1299 cells; 50 μM PKC412 24 hours, then 25 μM etoposide another 24 hours) was “reduced the amount of apoptosis”. For the same compound, the “effect of PKC412 on VP16-induced apoptosis” value (NCI-H1299 cells; [5]) was “protected NCI-H1299 cells against VP16-induced apoptosis”, the “cell cycle distribution after pre-treatment with PKC412” value (NCI-H1299) was “cell cycle arrest in the G2/M-phase” and the “apoptosis after PKC412 pre-treatment versus VP16 pre-treatment” value (A549 cells; 50 μM PKC412 and 25 μM etoposide, sequential, 24 hours each) was “did not significantly differ”. The “cytotoxicity of combined treatment with PKC412 and VP16” value (A549 cells; [5]) was “additive cytotoxicity”, the “apoptosis with PKC412 plus VP16 compared to VP16 alone” value (NCI-H460 cells) was “no further increase in apoptosis” and the “phosphorylation of downstream targets of PKC signal transduction (AKT, GSK-3beta)” value [4] was “effectively reduced”.
In the case of CN[C@@H]1C[C@H]2O[C@@](C)([C@@H]1OC)n1c3ccccc3c3c4c(c5c6ccccc6n2c5c31)C(=O)NC4 [staurosporine], the “effects in murine xenograft model of lung cancer” value (lung cancer xenograft) is listed as “antitumoral and antiangiogenic effects” and the “effect on cancer cell lines” value (cancer cell lines) is listed as “induced cell cycle arrest or apoptosis”.
